Experimental findings from publication PMC4528135, “Kinetic Investigations of the Role of Factor Inhibiting Hypoxia-inducible Factor (FIH) as an Oxygen Sensor” (The Journal of Biological Chemistry, 2015) are described below.

Holding throughout (assay type): biochemical
The target in assay [1] is T1, FIH (Homo sapiens, UniProt Q9NWT6).
T1 construct: Full-length recombinant FIH, two- and three-consensus ankyrin repeats (2CA and 3CA) were produced as described; His6 (cleaved yes); made in house; host or cells: Escherichia coli BL21(DE3)
T1 sequence (Q9NWT6 whole entry): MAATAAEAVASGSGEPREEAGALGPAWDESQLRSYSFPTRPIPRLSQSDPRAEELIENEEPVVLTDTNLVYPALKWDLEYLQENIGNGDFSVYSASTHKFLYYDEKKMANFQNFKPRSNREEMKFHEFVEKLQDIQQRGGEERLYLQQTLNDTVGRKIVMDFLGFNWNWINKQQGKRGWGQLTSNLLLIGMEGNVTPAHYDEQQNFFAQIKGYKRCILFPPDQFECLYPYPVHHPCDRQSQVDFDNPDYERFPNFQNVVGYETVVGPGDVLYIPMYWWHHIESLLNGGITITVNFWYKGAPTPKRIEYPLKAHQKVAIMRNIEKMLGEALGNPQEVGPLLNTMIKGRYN
The experiment in a line: Rapid quench-flow, FIH pre-steady-state product and succinate formation. Conditions: for Rapid quench-flow kproduct / Rapid quench-flow ksuccinate: 0.5 mM apo-FIH, 0.4 mM Fe(II), 5 mM 2OG, 1 mM substrate, 50 mM HEPES pH 7.5, O2-saturated buffer 1:1, 5 °C, quenched with 1% CF3CO2H; for Rapid quench-flow kproduct: hydroxylation by MALDI-TOF-MS, 1–3 separate experiments; for Rapid quench-flow ksuccinate: succinate by LC-MS. As to the method:
Rapid quench-flow experiments were performed using the same conditions and preparation of the assay mixture as used in stopped-flow experiments. Rapid quench-flow equipment (TgK Scientific Ltd.) in an anaerobic glove box was used for the experiments. Samples were quenched with 1% CF3CO2H and analyzed using MALDI-TOF-MS (peptide hydroxylation) as described above or liquid chromatography-mass spectrometry (LC-MS, for succinate production). For LC-MS, chromatographic separation was performed at 50 °C using a Waters ACQUITY BEH Amide 1.7-μm, 2.1 × 100-mm column on a Waters ACQUITY^TM ultraperformance liquid chromatography system (Waters Corp., Milford, MA). The following eluents were used: mobile phase A: 10% H2O, 90% acetonitrile (v/v), 10 mM ammonium formate; mobile phase B: 50% H2O, 50% acetonitrile (v/v), 10 mM ammonium formate. The elution gradient was 0–7.0 min linear from 10 to 30% B, and 7.0–9.0 min at 10% B for re-equilibration of the column. A constant flow rate of 0.4 ml/min was used. Analytes were detected in negative ionization mode using single reaction monitoring on a Quattro triple quadrupole mass spectrometer (Waters) with a cone voltage of 15 V and a capillary voltage of 3.0 kV. The desolvation temperature was set to 250 °C, and the source temperature was set to 120 °C.
FIGURE 9. Rapid quench-flow experiments showing FIH-catalyzed hydroxylation of HIF-1/2α CAD and ARD substrates. Reaction mixtures containing anaerobic 0.5 mM apo-FIH, 0.4 mM Fe(II), 5 mM 2OG, 1 mM peptide in HEPES 50 mM (pH 7.5) were rapidly mixed with O2-saturated buffer at 5 °C in a 1:1 ratio and then quenched with 1% CF3CO2H at defined time points. The data were fitted with the function, y = a·(1 − exp(−bx)) + c. Hydroxylation levels were assessed by MALDI-TOF-MS. A, hydroxylation of HIF-1α CAD, 1CA, and tankyrase-1 peptide substrates (19- and 20-mers); B, hydroxylation of HIF-1α, HIF-2α, and tankyrase-1 35-mer peptide substrates; C, hydroxylation of 1CA, 2CA, and 3CA. Data plotted were cumulatively acquired over the course of 1–3 separate experiments.

The target in assay [2] is T1, FIH. The experiment in a line: O2 dependence of FIH-catalyzed hydroxylation (hypoxia workstation). The settings on record: FIH with the named substrate; 5 μM FIH, 500 μM peptide, 50 μM Fe(II), 1 mM 2OG, 1 mM L-ascorbate, 50 mM HEPES pH 7.5, 37 °C, hypoxia workstation at different pO2; triplicate assays. As to the method: (§1) The O2 dependence of FIH-catalyzed reactions was determined by conducting enzymatic assays in an “In vivo 500 Hypoxia Workstation” (Ruskinn) using buffers pre-equilibrated under different pO2 values for 24 h. The O2 dependence of PHD2-catalyzed reactions was determined by conducting enzymatic assays in sealed glass vials with variable N2/O2 contents ([42]). Reactions were stopped by spotting samples onto a matrix-assisted laser desorption/ionization-time of flight mass spectrometry (MALDI-TOF-MS) target plate and immediately mixing with α-cyano-4-hydroxycinnamic acid matrix. Hydroxylation levels were assessed by MALDI-TOF-MS as described ([46]).
FIGURE 4. O2 dependence of FIH- and PHD2-catalyzed hydroxylation of HIF-1/2α. A, O2 dependence of PHD2-catalyzed hydroxylation of HIF-1/2α CODD/NODD 19-mer peptides. 4 μM PHD2, peptide (varied), 50 μM Fe(II), 2OG (varied), 4 mM L-ascorbate in HEPES 50 mM (pH 7.5) were incubated at 37 °C. The different O2 levels were maintained using mass flow controllers ([42]), and the hydroxylation levels were analyzed by MALDI-TOF-MS. B, O2 dependence of FIH-catalyzed hydroxylation of CAD HIF-1/2α 35-mer peptides. Conditions were as follows. 5 μM FIH, 500 μM peptide, 50 μM Fe(II), 1 mM 2OG, 1 mM L-ascorbate in HEPES 50 mM (pH 7.5) were incubated at 37 °C in a hypoxia work station under different pO2. […] Error bars, S.D. of triplicate assays.
FIGURE 8. Time course and O2 dependence of the FIH-catalyzed hydroxylation of HIF-α CAD and ARD substrates. Conditions were as follows. 5 μM FIH, 500 μM peptide, 50 μM Fe(II), 1 mM 2OG, 1 mM L-ascorbate in HEPES 50 mM (pH 7.5) were incubated at 37 °C. For O2 dependence studies, reactions were carried out in a hypoxic work station under different pO2 (assays at >20% O2 conducted using mass flow controllers ([42])). The different hydroxylation levels were analyzed by MALDI-TOF-MS or by LC-MS (for 2CA and 3CA). […] Error bars, S.D. of triplicate assays. A, time course of consensus ARD substrate hydroxylation (tankyrase-1 (tnkrs-1 20-mer and 35-mer) and one-consensus ankyrin repeat 20-mer (1CA)). B, time course of ARD peptide hydroxylation (one-consensus ankyrin repeat 20-mer (1CA), two ankyrin repeats (2CA), and three ankyrin repeats (3CA)). C, O2 dependence of HIF-1/2α CAD, 1CA, and tnkrs-1_35-mer hydroxylation. D, O2 dependence of 1CA, 2CA, and 3CA hydroxylation.

Assay [3] has as its target T1, FIH. The experiment in a line: Stopped-flow UV-visible spectroscopy, FIH·Fe(II)·2OG·substrate + O2. Conditions: anaerobic 0.5 mM FIH, 1 mM substrate, 5 mM 2OG, 0.4 mM Fe(II), 50 mM HEPES pH 7.5, mixed 1:1 with O2-saturated buffer at 5 °C; double exponential fit. On the procedure: Stopped-flow UV-visible spectroscopy experiments were performed as described previously ([32], [42]). Anerobically prepared assay mixtures containing 0.5 mM apo-FIH, 1 mM substrate, 5 mM 2OG, 0.4 mM Fe(II) or 0.8 mM apo-PHD2, 1 mM substrate, 5 mM 2OG, 0.5 mM Fe(II) were rapidly mixed with O2-free/O2-saturated buffer. The reaction was observed over 1000 s using a photodiode array detector, and kinetic traces were analyzed using Origin version 8.51 software. Data were fitted with a double exponential function (y = A1 × exp(−kriset) + A2 × exp(−kfallt) + y0). The A1, A2, and y0 parameters were restricted with upper limits to match the observed amplitude/offset changes.
Kinetic traces were fitted using a double exponential function; the fitting parameters of intermediate formation and decay are summarized in Table 3.
FIGURE 10. Stopped-flow UV-visible absorbance changes upon FIH-catalyzed hydroxylation of HIF-1/2α CAD and ARD substrates. Reaction mixtures containing anaerobic 0.5 mM apo-FIH, 0.4 mM Fe(II), 5 mM 2OG, and 1 mM peptide in HEPES 50 mM (pH 7.5) were rapidly mixed with O2-saturated buffer at 5 °C in 1:1 ratio and analyzed using a photodiode array detector. The data were fitted with a double exponential function. A, decay at 500 nm (representing enzyme·substrate complex depletion) observed upon FIH-catalyzed hydroxylation of ARD substrates compared with HIF-1/2α CAD. B, formation and degradation of 310 nm species observed upon FIH-catalyzed HIF-1/2α CAD and ARD hydroxylation. C, decay at 500 nm observed upon FIH-catalyzed hydroxylation of 1CA, 2CA, and 3CA substrates.

For assay [4], the target named is T1, FIH. The experiment in a line: Steady-state kinetics of FIH-catalyzed peptide/protein hydroxylation (MALDI-TOF-MS or LC-MS). The settings on record: 50 μM Fe(II), 1 mM L-ascorbate, 50 mM HEPES pH 7.5, 37 °C; for Km: 0.1–5 μM FIH, MALDI-TOF-MS (LC-MS for 2CA, 3CA), triplicate assays. As to the method: Enzymatic assays were conducted as described ([46], [47]). Unless otherwise stated, the assay mixture typically contained 5 μM FIH, 500 μM substrate, 500 μM 2OG, 1 mM L-ascorbate, and 50 μM Fe(NH4)2(SO4)2 or 4 μM PHD2, 100 μM substrate, 300 μM 2OG, 4 mM L-ascorbate, and 50 μM Fe(NH4)2(SO4)2. For HIF-1α CODD19-mer, the background levels of methionine oxidation resulting from assay conditions were subtracted based on non-enzymatic controls ([48]).
as §1
Samples obtained from FIH kinetic assays with 2CA and 3CA were diluted to a substrate concentration of 5 μM and then analyzed using a Waters® LCT Classic mass spectrometer by electrospray ionization in positive ion mode. An Agilent HP1100 LC system was used, and samples were run through a Phenomenex® Aeris Widepore 3.6-μm XB-C8 150 × 2.1-mm column at 0.5 ml/min in a gradient of phase A (95% H2O, 5% CH3CN, 0.01% formic acid) to phase B (95% CH3CN, 5% H2O, 0.01% formic acid). The LC/MS used the following method: 0–1.5 min, 100% A and then 1.5–12 min linear gradient from 0 to 100% B, 12–14 min 100% B, and 15.0–19.0 min 100% A for re-equilibration of the column. Data were collected and analyzed using MassLynx version 4.0.

For assay [5], the target named is T2, PHD2 (Homo sapiens, UniProt Q9GZT9).
T2 construct: The catalytic domain of PHD2 (residues 181–426) was purified as described; made in house
T2 sequence (Q9GZT9 181-426): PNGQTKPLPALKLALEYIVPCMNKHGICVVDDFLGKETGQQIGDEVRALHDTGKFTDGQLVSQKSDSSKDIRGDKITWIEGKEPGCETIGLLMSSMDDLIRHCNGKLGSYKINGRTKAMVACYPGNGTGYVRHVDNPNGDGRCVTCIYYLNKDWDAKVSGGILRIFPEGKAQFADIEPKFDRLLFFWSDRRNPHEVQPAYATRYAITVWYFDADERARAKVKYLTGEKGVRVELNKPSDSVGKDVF
The experiment in a line: Stopped-flow UV-visible spectroscopy, PHD2·Fe(II)·2OG·substrate + O2. Conditions: anaerobic 0.8 mM PHD2, 1 mM peptide, 5 mM 2OG, 50 mM HEPES pH 7.5, mixed 1:1 with O2-saturated buffer at 5 °C; double exponential fit; traces average of triplicate. On the procedure:
Stopped-flow UV-visible spectroscopy experiments were performed as described previously ([32], [42]). […] The reaction was observed over 1000 s using a photodiode array detector, and kinetic traces were analyzed using Origin version 8.51 software. Data were fitted with a double exponential function (y = A1 × exp(−kriset) + A2 × exp(−kfallt) + y0). The A1, A2, and y0 parameters were restricted with upper limits to match the observed amplitude/offset changes.
Previously reported pre-steady-state kinetic studies on PHD2 focused on its reaction with CODD HIF-1α 19-mer peptide ([38], [42]); there is no reported information on the rates of PHD2 reaction with O2 in the presence of NODD HIF-1α or HIF-2α substrates. To ascertain whether a slow reaction with O2 under pre-steady-state conditions is common to PHD2-catalyzed hydroxylation of both CODD and NODD, we investigated the reaction of PHD2 with NODD substrates in comparison with CODD for both HIF-1α and HIF-2α. Pre-steady-state reactions of PHD2 were initiated by rapid mixing of anaerobic PHD2·Fe(II)·2OG·HIF-α complexes with O2-saturated buffer at 5 °C. Reactions were initially observed using a photodiode array detector, and difference spectra (in comparison with the reaction with O2-free buffer) were subsequently analyzed.
FIGURE 5. Pre-steady-state kinetics of PHD2-catalyzed HIF-1/2α hydroxylation. […] B, stopped-flow kinetic traces at 520 nm showing absorbance changes in control experiments: Fe(II) only, mix of Fe(II) and 2OG, reaction of PHD2·Fe(II)·2OG complex with O2 in the absence of CODD; reaction of PHD2·Fe(II)·N-oxalylglycine (NOG)·CODD complex with O2. N-Oxalylglycine is an inhibitor of 2OG oxygenases. […] The kinetic traces represent the average of triplicate assays. E, HIF-1/2α peptide hydroxylation, as determined by MALDI-TOF-MS. Reactions were quenched with 1% CF3CO2H at defined time points.

Where two headings read alike, the source gives them in different places.

Consider DESGLPQLTSYDCEVNAPI [CAD HIF-1α19-mer], for which, in assay [1], the Rapid quench-flow kproduct worked out at 0.013 ± 0.003 s⁻¹ and the Rapid quench-flow ksuccinate amounted to 0.016 ± 0.004 s⁻¹. In addition, the “Km^app(O2)” value in assay [2] is on record as “no difference”.

In the case of “NLEVAEYLLEHGADVNAQDK [tnkrs-1_20-mer, 20-mer fragment of tankyrase-1, ARD substrate of FIH]”, in assay [3], the “Stopped-flow, 500 nm (FIH) kfall phase” value turned out to be 16.7 ± 0.2 s⁻¹ and the “Stopped-flow, 500 nm (FIH) krise phase” value turned out to be 0.4 ± 0.2 s⁻¹. In assay [1], this molecule had a Rapid quench-flow kproduct of 1.5 ± 0.1 s⁻¹ and a Rapid quench-flow ksuccinate of 1.0 ± 0.3 s⁻¹. In addition, in assay [1] (rapid quench-flow, 5 °C), the “product accumulation rate, fold faster than the reaction with HIF 35-mer substrates” value is roughly 10 fold. Moreover, in assay [4] (FIH with the named substrate, 2OG varied, read-out: Km^app(2OG)), the Km was 370 ± 120 µM. For the same molecule, the “kcat^app” value in assay [4] (FIH, MALDI-TOF-MS or LC-MS) came to 0.8 ± 0.1 s⁻¹. Besides, the Km in assay [4] (FIH, substrate varied, 2OG fixed, read-out: Km^app(peptide)) turned out to be 78 ± 11 µM.

B1: HIF-1α(344–503) NODD protein: recombinant HIF-1α(344–503) NODD protein, longer PHD2 substrate (protein, UniProt Q16665 344-503, looked up, fragment)
chain: GIIQHDLIFSLQQTECVLKPVESSDMKMTQLFTKVESEDTSSLFDKLKKEPDALTLLAPAAGDTIISLDFGSNDTETDDQQLEEVPLYNDVMLPSPNEKLQNINLAMSPLPTAETPKPLRSSADPALNQEVALKLEPNPESLELSFTMPQIQDQTPSPSD
In the case of B1, in assay [5], the “Stopped-flow, 520 nm (PHD2) kfall phase” value was “same kinetics”.

What is called Km is the concentration of substrate that gives half-maximal velocity.
